This is an account of results in publication PMC12690644 (RSC Advances, 2025).

In assay [1] the target is acetylcholinesterase (AChE). In words: colorimetric kinetic kit assay, […] nm. The note with it: room temperature, 10-15 min preincubation. It counts as biochemical.
The target of assay [2] is β-secretase (BACE-1) (Homo sapiens, UniProt P56817). In words: fluorescence kit assay, slope based. It counts as biochemical.

The term IC50 denotes the concentration needed to halve the response being measured. A high value points to a need for much substance.

Sequence of β-secretase (BACE-1) (P56817 46-501): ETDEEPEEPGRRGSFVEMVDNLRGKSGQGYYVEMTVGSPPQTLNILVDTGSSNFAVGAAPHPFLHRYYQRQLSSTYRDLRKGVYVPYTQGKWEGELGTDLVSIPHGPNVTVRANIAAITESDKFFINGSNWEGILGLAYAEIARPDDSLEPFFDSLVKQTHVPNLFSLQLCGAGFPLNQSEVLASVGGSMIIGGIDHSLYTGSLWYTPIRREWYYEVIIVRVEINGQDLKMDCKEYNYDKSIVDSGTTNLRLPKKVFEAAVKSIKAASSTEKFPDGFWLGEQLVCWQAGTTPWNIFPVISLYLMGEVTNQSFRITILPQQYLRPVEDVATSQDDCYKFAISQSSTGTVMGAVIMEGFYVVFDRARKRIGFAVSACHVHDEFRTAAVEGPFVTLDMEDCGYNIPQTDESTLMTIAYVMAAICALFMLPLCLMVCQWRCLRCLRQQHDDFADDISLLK

Turning to `CC(=O)[N+](C)(C)CCc1ccc(O)cc1` [compound 6, N-acetyl hordenine], in assay [1], the “AChE (μg mL^-1 ± SD)” value turned out to be 2.255 ± 0.074 µg/mL. In addition, it took 8210 nM to reach half-maximal inhibition in assay [2] (IC50).

For the molecule `O=C1C[C@@H](c2ccc(O)cc2)Oc2cc(O)cc(O)c21` [compound 1, naringenin], the “AChE (μg mL^-1 ± SD)” value in assay [1] amounted to 0.212 ± 0.007 µg/mL. The same molecule showed an IC50 in assay [2] of 1550 nM.

With `CC1=CC(=O)CC(C)(C)[C@@]1(O)/C=C/[C@@H](C)O[C@@H]1O[C@H](CO)[C@@H](O)[C@H](O)[C@H]1O` [compound 4, vomifoliol-9-O-β-D-glucopyranoside], the “AChE (μg mL^-1 ± SD)” value in assay [1] came out at 0.452 ± 0.014 µg/mL. The 50% inhibitory concentration (IC50) in assay [2] was 171 nM.

For the molecule `CC(=O)[N+](C)(CCl)CCc1ccc(O)cc1` (centres unmarked) [compound 7, N-acetyl-N-chloromethyl-N-methyl tyramine], the “AChE (μg mL^-1 ± SD)” value in assay [1] came to 0.607 ± 0.02 µg/mL. Also, the 50% inhibitory concentration (IC50) in assay [2] was 494 nM.

Regarding `COc1c(-c2ccc(O)cc2)oc2cc(O)cc(O)c2c1=O` [compound 3, isokaempferide], in assay [1], the “AChE (μg mL^-1 ± SD)” value amounted to 0.483 ± 0.015 µg/mL. The molecule further showed an IC50 in assay [2] of 446 nM.

In the case of `O=c1c(O)c(-c2ccc(O)cc2)oc2cc(O)cc(O)c12` [compound 2, 3,4′,5,7-tetrahydroxyflavone], the “AChE (μg mL^-1 ± SD)” value in assay [1] came out at 1.099 ± 0.03 µg/mL. The molecule also had an IC50 in assay [2] of 25100 nM.

Regarding `C[N+](C)(CCl)CCc1ccc(O)cc1` [compound 5, N-chloromethyl hordenine], in assay [1], the “AChE (μg mL^-1 ± SD)” value is 0.076 ± 0.002 µg/mL. The same molecule gave an IC50 in assay [2] of 1250 nM.
